Data taken from BindingDB's records for doi:10.1016/s0960-894x(01)00591-1 (University of Maryland, 2001).

Molecular target: Guanine deaminase (Oryctolagus cuniculus)
Assay: Binding affinity against Guanine deaminase (guanase) from rabbit liver was determined

- Ki: 29.7 µM
SMILES: N=c1nc(N)nc(N)c2c1N(COCCO)CN2
